Results reported in BindingDB's records for doi:10.7270/Q2PR7TCX (The Scripps Research Institute Molecular Screening Center, 2007).
Where a name gives a salt, the structure may show the parent alone.

The compounds below were run against Steroidogenic factor 1 (Homo sapiens, UniProt Q13285) (assay: SF-1 inhibitors in Gal4 reporter counter-screen, dose response, counter-screen for RORA inhibitor project, cell-based, CHO-K1, Gal4-SF-1 LBD, luciferase luminescence (AID 611)). Details: not given.
Sequence of Steroidogenic factor 1 (Q13285 whole entry, the tested form may be a part): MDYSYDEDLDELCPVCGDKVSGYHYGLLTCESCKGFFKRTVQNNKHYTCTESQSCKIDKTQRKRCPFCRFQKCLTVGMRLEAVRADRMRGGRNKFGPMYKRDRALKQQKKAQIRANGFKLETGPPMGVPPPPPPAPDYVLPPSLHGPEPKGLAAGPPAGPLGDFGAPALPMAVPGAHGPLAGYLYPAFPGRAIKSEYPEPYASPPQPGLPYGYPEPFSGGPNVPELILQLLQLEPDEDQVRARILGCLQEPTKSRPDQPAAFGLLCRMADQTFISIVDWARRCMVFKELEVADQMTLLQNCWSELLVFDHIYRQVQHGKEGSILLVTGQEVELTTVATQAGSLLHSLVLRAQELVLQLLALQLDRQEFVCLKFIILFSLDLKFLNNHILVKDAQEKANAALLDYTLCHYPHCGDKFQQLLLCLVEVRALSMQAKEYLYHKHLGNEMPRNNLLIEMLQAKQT
`Cc1nnc(SC(=O)N2c3ccccc3Sc3ccccc32)s1` [10-phenothiazinecarbothioic acid S-(5-methyl-1,3,4-thiadiazol-2-yl) ester] showed an IC50 of 6.07 µM. With `O=C(OC1CCOC1=O)c1ccc(-c2nc3ccccc3s2)s1` (configuration not stated) [(2-oxidanylideneoxolan-3-yl) 5-(1,3-benzothiazol-2-yl)thiophene-2-carboxylate] the IC50 was 5.18 µM. `O=C1C(=CNc2ccc3c(c2)OCO3)CCc2ccccc21` [(2E)-2-[(1,3-benzodioxol-5-ylamino)methylene]tetralin-1-one] showed an IC50 of 3.32 µM. Work on `COc1cccc2sc(Nc3nc(-c4ccccn4)cs3)nc12` [(4-methoxy-1,3-benzothiazol-2-yl)-[4-(2-pyridyl)thiazol-2-yl]amine] yielded an IC50 of 3.89 µM. With `CN=c1scc(C)n1N=Cc1ccc(O)cc1O` [(4E)-4-[[(4-methyl-2-methylimino-1,3-thiazol-3-yl)amino]methylidene]-3-oxidanyl-cyclohexa-2,5-dien-1-one] the IC50 was 1.94 µM. `COc1ccc(CCNc2c(C)c(C)nc3ncnn23)cc1` [(5,6-Dimethyl-[1,2,4]triazolo[1,5-a]pyrimidin-7-yl)-[2-(4-methoxy-phenyl)-ethyl]-amine] was tested, and the IC50 was 6.45 µM. With `COc1cccc2c1C(=O)c1c(O)c3c(c(O)c1C2=O)C[C@@](O)(C(C)=O)C[C@@H]3O[C@H]1C[C@H](N)[C@H](O)[C@H](C)O1` [(7S,9S)-9-acetyl-7-[(2R,4S,5S,6S)-4-amino-5-hydroxy-6-methyloxan-2-yl]oxy-6,9,11-trihydroxy-4-methoxy-8,10-dihydro-7H-tetracene-5,12-dione;hydrochloride] the IC50 was 0.409 µM. Work on `C[C@H]1CCCC=CC2C[C@H](O)CC2[C@H](O)C=CC(=O)O1` (stereo partly drawn) [(7S,12R,15S)-12,15-dihydroxy-7-methyl-8-oxabicyclo[11.3.0]hexadeca-2,10-dien-9-one] yielded an IC50 of 8.95 µM. With `Cc1ccc(C(=O)CC=Nc2ccccn2)cc1` [(E)-1-(4-methylphenyl)-3-(2-pyridinylamino)-2-propen-1-one] the IC50 was 1.49 µM. Compound `O=C(CC=Nc1ccccn1)c1ccc(Cl)cc1` [(Z)-1-(4-chlorophenyl)-3-(2-pyridinylamino)-2-propen-1-one] has an IC50 of 4.88 µM. Work on `O=S(=O)(C/C(=C/CO)S(=O)(=O)c1ccccc1)c1ccccc1` [(Z)-3,4-bis(benzenesulfonyl)but-2-en-1-ol] yielded an IC50 of 4.03 µM. `O=C(CC=Nc1ccc2c(c1)OCO2)c1ccccn1` [(Z)-3-(1,3-benzodioxol-5-ylamino)-1-(2-pyridinyl)-2-propen-1-one] showed an IC50 of 1.5 µM. For `CCOC(=O)c1[n-]c2ccccc2c1[N+]#N` [(Z)-(3-diazonio-2-indolylidene)-ethoxymethanolate], the IC50 was 13.2 µM. `COc1ccc(C2=Nn3c(nnc3-c3ccccc3OC)SC2)cc1OC` [BMCL181297 Compound 5A] gave an IC50 of over 3.67 µM. Compound `COc1cccc2c1C(=O)c1c(O)c3c(c(O)c1C2=O)C[C@@](O)(C(=O)CO)C[C@@H]3O[C@H]1C[C@H](N)[C@H](O)[C@H](C)O1` [MLS000028393] has an IC50 of 1.18 µM. With `CCOc1cc(C(=O)CSc2nnc(CNc3ccc(Cl)cc3)o2)ccc1NC(=O)CC` [MLS000032332] the IC50 was 7.64 µM. `Nc1ccc(-c2nc3c(Cl)cc(N)cc3[nH]2)cc1` [MLS000034140] gave an IC50 of 5.43 µM. `Cc1cccc(NC(=O)CSc2nnc(-c3cc(C)n(-c4ccccc4)c3C)o2)c1C` [MLS000036049] showed an IC50 of 3.29 µM. In the case of `COc1cccc(C(=O)c2sc(NC(C)C)nc2N)c1` [MLS000036929], the IC50 is reported as 5.26 µM. Work on `CC(=O)c1sc(NC(=O)C2(F)C(F)(F)C(F)(F)C(F)(F)C(F)(F)C2(F)F)nc1C` [MLS000040071] yielded an IC50 of 6.77 µM. `COc1ccc(CCNc2ncnc3c2oc2ccccc23)cc1OC` [MLS000041708] was tested, and the IC50 was 2.27 µM. `COc1ccc(C=Nn2nnc3ccccc32)cc1` [MLS000043825] showed an IC50 of 4 µM. Compound `CS(=O)(=O)c1nc(-c2cccs2)cc(C(F)(F)F)n1` [MLS000044645] has an IC50 of 6.41 µM. `Cc1ccc(NC(=O)Cc2nn(C)c(=O)c3ccccc23)cc1F` [MLS000047015] was tested, and the IC50 was 3.9 µM. Compound `Cn1nc(CC(=O)Nc2ccc3c(c2)OCCO3)c2ccccc2c1=O` [MLS000047020] has an IC50 of 6.3 µM. In the case of `CCn1c2ccccc2c2cc(NC(=O)CSc3nnnn3-c3ccccc3)ccc21` [MLS000051054], the IC50 is reported as 6.74 µM. `COc1cc2nc(CN3CC=C(c4ccccc4)CC3)nc(O)c2cc1OC` [MLS000053305] showed an IC50 of 2.36 µM. For `O=C(NC1=NCCS1)C1COc2ccccc2O1` (configuration not stated) [MLS000056062], the IC50 was 4.65 µM. For `CC(=O)Nc1ccccc1OCC(=O)c1cc(C)n(Cc2cccs2)c1C` [MLS000056239], the IC50 was 0.841 µM. With `COc1ccc(CCNc2nnc(Sc3nnnn3-c3ccccc3)s2)cc1OC` [MLS000056567] the IC50 was 7.21 µM. For `CC(=O)Nc1ccc(SCC(=O)c2cc(C)n(Cc3cccs3)c2C)cc1` [MLS000058142], the IC50 was 4.41 µM. `Cc1cc(C)n(-c2ccc3cccc(NS(C)(=O)=O)c3n2)n1` [MLS000062301] gave an IC50 of 4.32 µM. Work on `O=C(Nc1ccc(N2CCOCC2)cc1)c1cnsn1` [MLS000063695] yielded an IC50 of 6.57 µM. `CC1CCc2nc(NC(=O)c3ccco3)sc2C1` (configuration not stated) [MLS000063711] was tested, and the IC50 was 3.29 µM. `Cc1cc(NC(=O)c2ccc3c(c2)OCCO3)no1` [MLS000064124] gave an IC50 of 9.29 µM. In the case of `CCN(C(=O)c1ccc(C(C)(C)C)cc1)c1nnc(Cn2nnc3ccccc32)s1` [MLS000072751], the IC50 is reported as 7.71 µM. `O=C(CSc1nnnn1-c1ccccc1)Nc1nsc(-c2ccc(Cl)cc2)n1` [MLS000085595] gave an IC50 of 5.78 µM. With `COc1ccc(-c2nc(CSCC(=O)NCc3ccco3)c(C)o2)cc1` [MLS000089353] the IC50 was 7.05 µM. `COCCNC(=O)CSCc1nc(-c2ccc(SC)cc2)oc1C` [MLS000089367] showed an IC50 of 0.656 µM. Work on `CN(C)c1ccc(-c2nc3ccccc3n2C)cc1` [MLS000089904] yielded an IC50 of 6.81 µM. Work on `O=C(NCc1ccco1)c1ccc2nc3sc4c(c3c(=O)n2c1)CCCC4` [MLS000091875] yielded an IC50 of over 4.06 µM. Work on `O=c1cc(N2CCN(c3cccc(Cl)c3)CC2)[nH]c(=O)n1C1CCCCC1` [MLS000094380] yielded an IC50 of 0.44 µM. Compound `COc1ccc(C(=O)Nn2c(SCC(=O)NCc3ccco3)nc3ccccc3c2=O)cc1` [MLS000097349] has an IC50 of 5.3 µM. `O=C(NCCOc1ccccc1)c1ccc2c(c1)OCO2` [MLS000100028] showed an IC50 of 9.86 µM. `O=C(Nc1nc2cc3c(cc2s1)OCO3)C1=COCCO1` [MLS000103798] was tested, and the IC50 was 4.16 µM. Compound `CN(C)c1ccc(NC(=S)c2ccccn2)cc1` [MLS000111989] has an IC50 of 3.04 µM. Compound `Cc1cc(C=Nn2cnnc2)c(C)n1-c1ccc(OCc2ccc(F)cc2)cc1` [MLS000112167] has an IC50 of 3.4 µM. `Cc1cc(C=Nn2cnnc2)c(C)n1-c1ccc(OCc2ccccc2F)cc1` [MLS000112180] gave an IC50 of 7.58 µM. `Cc1ccc(-c2nnc(SCC(=O)Nc3ccccc3F)o2)cc1` [MLS000114725] was tested, and the IC50 was 9.9 µM. `COc1ccc(CNC(=O)c2cc3c(C)nc4ccccc4c3o2)c(OC)c1` [MLS000118441] showed an IC50 of over 3.67 µM. With `O=C(Nc1nc2ccccc2[nH]1)c1ccccc1F` [N-1,3-dihydro-2H-benzimidazol-2-ylidene-2-fluorobenzamide] the IC50 was 1.91 µM. `O=C(Nc1nc2ccccc2[nH]1)c1ccc(F)cc1` [N-1,3-dihydro-2H-benzimidazol-2-ylidene-4-fluorobenzamide] was tested, and the IC50 was over 11 µM. `N#Cc1c(NC(=O)CSc2nc[nH]n2)sc2c1CCCCC2` [N-(3-cyano-5,6,7,8-tetrahydro-4H-cyclohepta[b]thien-2-yl)-2-(1H-1,2,4-triazol-3-ylthio)acetamide] was tested, and the IC50 was 0.237 µM. With `Cc1ccc(-c2csc(N3CCC(NS(=O)(=O)c4ccc5c(c4)OCCO5)CC3)n2)cc1` [N-[1-[4-(4-methylphenyl)-1,3-thiazol-2-yl]piperidin-4-yl]-2,3-dihydro-1,4-benzodioxine-6-sulfonamide] the IC50 was 5.97 µM.

Same assay, conditions: inactive by the depositor's call
With `CCCOc1ccccc1C1CC(=O)Nc2cc3c(cc21)OCCO3` (configuration not stated) [9-(2-propoxyphenyl)-2,3,8,9-tetrahydro[1,4]dioxino[2,3-g]quinolin-7(6H)-one] the IC50 was 10.6 µM. For `COc1cccc(OC)c1C1=NCC(=O)Nc2c1oc1ccc(Br)cc21` [9-bromanyl-5-(2,6-dimethoxyphenyl)-1,3-dihydro-[1]benzofuro[3,2-e][1,4]diazepin-2-one], the IC50 was 15.4 µM. For `COc1ccc(CNc2cc(C)nc3ncnn23)c(OC)c1` [(2,4-Dimethoxy-benzyl)-(5-methyl-[1,2,4]triazolo[1,5-a]pyrimidin-7-yl)-amine], the IC50 was 23.4 µM. Compound `Cc1ccc2c(c1)nnn2C1CCN(S(=O)(=O)c2ccc(C(=O)N3C(C)CCCC3C)cc2)CC1` (configuration not stated) [(2,6-Dimethyl-piperidin-1-yl)-{4-[4-(5-methyl-benzotriazol-1-yl)-piperidine-1-sulfonyl]-phenyl}-methanone] has an IC50 of 10.6 µM. `Cc1nc(NC(C)c2ccccc2)c2oc3ccccc3c2n1` (configuration not stated) [(2-methylbenzofuro[3,2-d]pyrimidin-4-yl)-(1-phenylethyl)amine] was tested, and the IC50 was 23.1 µM. `CCc1c(C)nc2ncnn2c1NCCc1ccc(OC)cc1` [(6-Ethyl-5-methyl-[1,2,4]triazolo[1,5-a]pyrimidin-7-yl)-[2-(4-methoxy-phenyl)-ethyl]-amine] showed an IC50 of 11.6 µM. Work on `Cc1ccccc1OCC(=O)Nc1ccc(N2CCN(C(=O)C(C)C)CC2)c(Cl)c1` [MLS000034491] yielded an IC50 of 14 µM. Compound `CS(=O)(=O)c1nc(-c2ccco2)cc(C(F)(F)F)n1` [MLS000044646] has an IC50 of 10.8 µM. `Cc1noc(C)c1S(=O)(=O)Nc1ccc(C(=O)N2CCN(c3ccc(Cl)cc3)CC2)cc1` [MLS000045033] gave an IC50 of 21.1 µM. Work on `Cc1ccc(F)cc1NC(=O)Cc1nn(C)c(=O)c2ccccc12` [MLS000047013] yielded an IC50 of 12.2 µM. For `N#C/C(=C/c1ccc(N2CCCCCC2)o1)c1ccc(F)cc1` [MLS000051438], the IC50 was 18.5 µM. Work on `CCOC(=O)c1c(C)[nH]c(C(=O)C(C)OC(=O)c2cccc(OCc3c(C)noc3C)c2)c1C` (configuration not stated) [MLS000054923] yielded an IC50 of 10.6 µM. In the case of `Cc1cc(C)nc(SCC(=O)Nc2ccc(N3CCOCC3)c(Cl)c2)n1` [MLS000066583], the IC50 is reported as 13.3 µM. `c1ccc(CN2CCN(c3ncnc4c3[nH]c3ccccc34)CC2)cc1` [MLS000078384] gave an IC50 of 11.3 µM. `Fc1ccc2[nH]c3c(N4CCSCC4)ncnc3c2c1` [MLS000078401] showed an IC50 of 10.4 µM. Compound `CCOc1cc(C(=O)N2CCc3cc(OC)c(OC)cc3C2)ccc1OC(F)F` [MLS000083614] has an IC50 of 10.6 µM. With `CC1(C)COCN1S(=O)(=O)c1ccc(C(=O)Nc2nnc(-c3ccc(Cl)s3)o2)cc1` [MLS000086346] the IC50 was 12.2 µM. `CCCOC(=O)c1[nH]c2c(c1C)C(=O)CC(c1cc(OC)c(OC)c(OC)c1)C2` (configuration not stated) [MLS000116504] showed an IC50 of 11.5 µM.
